What was measured:
[1] = target: T1, HIV-1 RT (Human immunodeficiency virus type 1 group M subtype B, UniProt P03366); experiment: Heteropolymer HIV reverse Transcriptase Assay: Inhibitor IC50 Determination; type: biochemical; conditions: RNA-dependent DNA polymerase activity, biotinylated DNA primer/RNA template, SPA beads, 30°C 30 min
Description: Heteropolymer HIV reverse Transcriptase Assay: Inhibitor IC50 Determination
RNA-dependent DNA polymerase activity was measured using a biotinylated primer oligonucleotide and tritiated dNTP substrate. Newly synthesized DNA was quantified by capturing the biotinylated primer molecules on streptavidin coated Scintillation Proximity Assay (SPA) beads (Amersham). The sequences of the polymerase assay substrate were: 18nt DNA primer, 5′-Biotin/GTC CCT GTT CGG GCG CCA-3′ (SEQ. ID NO. 2); 47nt RNA template, 5′-GGGUCUCUCUGGUUAGACCACUCUAGCAGUGGCGCCCGAACAGGGAC-3′ (SEQ ID NO. 1). The biotinylated DNA primer was obtained from the Integrated DNA Technologies Inc. and the RNA template was synthesized by Dharmacon. The DNA polymerase assay (final volume 50 μl) contained 32 nM biotinylated DNA primer, 64 nM RNA substrate, dGTP, dCTP, dTTP (each at 5 μM), 103 nM [^3H]-dATP (specific activity=[…]), in 45 mM Tris-HCl, pH 8.0, 45 mM NaCl, 2.7 mM Mg(CH3COO)2, 0.045% Triton X-100 w/v, 0.9 mM EDTA. The reactions contained 5 μl of serial compound dilutions in 100% DMSO for IC50 determination and the final concentrations of DMSO were 10%. Reactions were initiated by the addition of 30 μl of the HIV-1-RT enzyme (final concentrations of 1-3 nM). Protein concentrations were adjusted to provide linear product formation for at least 30 min of incubation. After incubation at 30°C for 30 min, the reaction was quenched by addition of 50 μl of 200 mM EDTA (pH 8.0) and 2 mg/ml SA-PVT SPA beads (Amersham, RPNQ0009, reconstituted in 20 mM Tris-HCl, pH 8.0, 100 mM EDTA and 1% BSA). The beads were left to settle overnight and the SPA signals were counted in a 96-well top counter-NXT (Packard). IC50 values were obtained by sigmoidal regression analysis using GraphPad Prism 3.0 (GraphPad Software, Inc.).

[2] = target: T1, HIV-1 RT; experiment: Homopolymer HIV Reverse Transcriptase Assay: Inhibitor IC50 Determination; type: biochemical; conditions: purified recombinant enzyme, poly(rA)/oligo(dT)16 template-primer, [3H] dTTP, 37° C. 30 min
Description: Homopolymer HIV Reverse Transcriptase Assay: Inhibitor IC50 Determination
HIV-1 RT assay was carried out in 96-well Millipore MultiScreen MADVNOB50 plates using purified recombinant enzyme and a poly(rA)/oligo(dT)16 template-primer in a total volume of 50 μL. The assay constituents were 50 mM Tris/HCl, 50 mM NaCl, 1 mM EDTA, 6 mM MgCl2, 5 μM dTTP, 0.15 μCi [^3H] dTTP, 5 μg/ml poly (rA) pre annealed to 2.5 μg/ml oligo (dT)16 and a range of inhibitor concentrations in a final concentration of 10% DMSO. reactions were initiated by adding 4 nM HIV-1 RT and after incubation at 37° C. for 30 min, they were stopped by the addition of 50 μl ice cold 20%TCA and allowed to precipitate at 4° C. for 30 min. The precipitates were collected by applying vacuum to the plate and sequentially washing with 3×200 μl of 10% TCA and 2×200 μl 70% ethanol. Finally, the plates were dried and radioactivity counted in a Packard TopCounter after the addition of 25 μl scintillation fluid per well. IC50's were calculated by plotting % inhibition versus log10 inhibitor concentrations.

| SMILES | IC50 [1] | melting point | IC50 [2] |
| --- | --- | --- | --- |
| CC(C)(CN1CCCC1)NC(=O)c1ccc(NC(=O)Cc2ccc(Br)c(Oc3cc(Cl)cc(C#N)c3)c2F)c(Cl)c1 [Compound I-45, 4-{2-[4-Bromo-3-(3-chloro-5-cyano-phenoxy)-2-fluoro-phenyl]-acetylamino}-3-chloro-N-(1,1-dimethyl-2-pyrrolidin-1-yl-ethyl)-benzamide] | 4.1 nM | 70 °C |  |
| CN1CCC(NC(=O)c2ccc(NC(=O)Cc3ccc(Br)c(Oc4cc(Cl)cc(C#N)c4)c3F)c(Cl)c2)C1 (centres unmarked) [Compound I-50, 4-{2-[4-Bromo-3-(3-chloro-5-cyano-phenoxy)-2-fluoro-phenyl]-acetylamino}-3-chloro-N-(1-methyl-pyrrolidin-3-yl)-benzamide] | 6.9 nM | 204 °C |  |
| Cc1cc(C(=O)NCCN(C)C)ccc1NC(=O)Cc1ccc(Cl)c(Oc2cc(Cl)cc(C#N)c2)c1F [Compound I-5, 4-{2-[4-Chloro-3-(3-chloro-5-cyano-phenoxy)-2-fluoro-phenyl]-acetylamino}-N-(2-dimethylamino-ethyl)-3-methyl-benzamide; compound with trifluoro-acetic acid] |  |  | 15.4 nM |
| Cc1cc(C(=O)NS(C)(=O)=O)ccc1NC(=O)Cc1ccc(Br)c(Oc2cc(Cl)cc(C#N)c2)c1F [Compound I-36, 2-[4-Bromo-3-(3-chloro-5-cyano-phenoxy)-2-fluoro-phenyl]-N-(4-methanesulfonylaminocarbonyl-2-methyl-phenyl)-acetamide] |  | 244.9 to 246.7 °C | 4.6 nM |
| Cc1cc(C(=O)NCCN2CCC(O)CC2)ccc1NC(=O)Cc1ccc(Br)c(Oc2cc(Cl)cc(C#N)c2)c1F [Compound I-25, 4-{2-[4-Bromo-3-(3-chloro-5-cyano-phenoxy)-2-fluoro-phenyl]-acetylamino}-N-[2-(4-hydroxy-piperidin-1-yl)-ethyl]-3-methyl-benzamide] |  | 219.6 to 221.6 °C | 55.2 nM |
| Cc1cc(C(=O)NCc2cccnc2)ccc1NC(=O)Cc1ccc(Cl)c(Oc2cc(Cl)cc(C#N)c2)c1F [Compound I-15, 4-{2-[4-Chloro-3-(3-chloro-5-cyano-phenoxy)-2-fluoro-phenyl]-acetylamino}-3-methyl-N-pyridin-3-ylmethyl-benzamide; compound with trifluoro-acetic acid] |  |  | 16.6 nM |
| Cc1cc(C(=O)NCCN2CCNCC2)ccc1NC(=O)Cc1ccc(Br)c(Oc2cc(Cl)cc(C#N)c2)c1F [Compound I-30, 4-{2-[4-Bromo-3-(3-chloro-5-cyano-phenoxy)-2-fluoro-phenyl]-acetylamino}-3-methyl-N-(2-piperazin-1-yl-ethyl)-benzamide] |  | 126.5 to 127 °C | 20.9 nM |
| Cl.N#Cc1cc(Cl)cc(Oc2c(Br)ccc(CC(=O)Nc3ccc(C(=O)NCCN4CCC(F)(F)CC4)cc3Cl)c2F)c1 [Compound I-40, 4-{2-[4-Bromo-3-(3-chloro-5-cyano-phenoxy)-2-fluoro-phenyl]-acetylamino}-3-chloro-N-[2-(4,4-difluoro-piperidin-1-yl)-ethyl]-benzamide; hydrochloride salt] | 37 nM | 140.2 to 143.3 °C |  |
| N#Cc1cc(Cl)cc(Oc2c(Br)ccc(CC(=O)Nc3ccc(C(=O)N[C@@H]4CS(=O)(=O)C[C@H]4O)cc3Cl)c2F)c1 |  | 245 °C |  |
| N#Cc1cc(Cl)cc(Oc2c(Br)ccc(CC(=O)Nc3ccc(C(=O)NC4(CO)CC4)cc3Cl)c2F)c1 |  | 247.7 to 250.1 °C |  |
| Cc1cc(C(=O)NCC(O)CO)ccc1NC(=O)Cc1ccc(Cl)c(Oc2cc(Cl)cc(C#N)c2)c1F (centres unmarked) [Compound I-20, 4-{2-[4-Chloro-3-(3-chloro-5-cyano-phenoxy)-2-fluoro-phenyl]-acetylamino}-N-(2,3-dihydroxy-propyl)-3-methyl-benzamide] |  |  | 20.6 nM |
| Cc1cc(C(=O)NC[C@@H](C)O)ccc1NC(=O)Cc1ccc(Cl)c(Oc2cc(Cl)cc(C#N)c2)c1F [Compound I-10, 4-{2-[4-Chloro-3-(3-chloro-5-cyano-phenoxy)-2-fluoro-phenyl]-acetylamino}-N-((R)-2-hydroxy-propyl)-3-methyl-benzamide] |  | 249 to 249.4 °C | 18.3 nM |
| N#Cc1cc(Cl)cc(Oc2c(Br)ccc(CC(=O)Nc3ccc(C(=O)NC4CCS(=O)(=O)C4)cc3Cl)c2F)c1 (centres unmarked) [Compound I-55, 4-{2-[4-Bromo-3-(3-chloro-5-cyano-phenoxy)-2-fluoro-phenyl]-acetylamino}-3-chloro-N-(1,1-dioxo-tetrahydro-1λ^6-thiophen-3-yl)-benzamide] | 16.3 nM | 236.6 °C |  |
| CC(CN(C)C)NC(=O)c1ccc(NC(=O)Cc2ccc(Br)c(Oc3cc(Cl)cc(C#N)c3)c2F)c(Cl)c1 (centres unmarked) |  | 190.1 °C |  |
| Cc1cc(C(=O)NCCN(C)C)ccc1NC(=O)Cc1ccc(Br)c(Oc2cc(C#N)cc(C(F)F)c2)c1F |  | 205.6 to 206.6 °C |  |

Source: patent US7754919B2, “Non-nucleoside reverse transcriptase inhibitors” (Roche Palo Alto LLC, priority 2005, dated 2010)
